US20250320227A1, “MACROCYCLIC OREXIN RECEPTOR AGONISTS AND USES THEREOF” (Jazz Pharmaceuticals Ireland Limited, priority 2022, published 2025)

Target: T1, human recombinant OX2 (hOX2) receptors expressed in CHO cells (Homo sapiens, UniProt O43614)
T1 construct: host or cells: CHO cells (hOX2-CHO)
T1 sequence (O43614 1-444): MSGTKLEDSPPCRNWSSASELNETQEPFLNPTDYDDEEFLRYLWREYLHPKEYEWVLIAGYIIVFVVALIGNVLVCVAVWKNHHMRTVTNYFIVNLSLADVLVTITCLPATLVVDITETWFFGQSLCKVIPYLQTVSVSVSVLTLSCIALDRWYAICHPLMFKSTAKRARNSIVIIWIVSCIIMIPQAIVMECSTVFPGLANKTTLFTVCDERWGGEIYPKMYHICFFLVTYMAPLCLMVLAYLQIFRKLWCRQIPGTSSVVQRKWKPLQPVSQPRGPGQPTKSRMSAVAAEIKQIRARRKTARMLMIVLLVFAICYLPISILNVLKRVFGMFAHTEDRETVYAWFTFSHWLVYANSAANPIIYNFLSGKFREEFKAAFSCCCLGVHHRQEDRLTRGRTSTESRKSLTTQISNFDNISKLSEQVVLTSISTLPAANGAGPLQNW
Test: IP-1 accumulation assay (IP-One HTRF) in hOX2-CHO cells
Type: cell-based
Settings: 60 min incubation at 37° C., mean of at least two independent experiments, read-out: EC50_OX2R Category
How it was run: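 CHO cells in suspension in HBSS/20 mM HEPES pH 7.4 with 50 mM LiCl and 0.1% BSA, given compound (11-point series, 0.5% DMSO) for 60 min at 37 °C. IP-1 read by HTRF ratio, scaled to maximal OX-A response; EC50 from four-parameter fit, mean of ≥2 experiments.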

| EC50 [nM] | Structure (SMILES) |
| --- | --- |
| 100 to 1000 | O=C1COC[C@]2(CCCN3C(=O)CCOc4c(F)cc(F)cc4[C@H]4CC[C@H](CC4)OC[C@@H]32)N1 (single isomer, unassigned) [Example 50b] |
| < 100 | O=C1COC[C@@]2(CCCN3C(=O)OCCOc4cccc(c4)[C@H]4CC[C@H](CC4)OC[C@H]32)N1 (single isomer, unassigned) [Example 53a] |
| > 10000 | O=C1COC[C@]2(CCCN3C(=O)OCCOc4cccc(c4)[C@H]4CC[C@H](CC4)OC[C@@H]32)N1 (single isomer, unassigned) [Example 53b] |
| < 100 | O=C1COC[C@@]2(CCCN3C(=O)OCCCOc4cccc(c4)[C@H]4CC[C@H](CC4)OC[C@H]32)N1 (single isomer, unassigned) [Example 54a] |
| 1000 to 10000 | O=C1COC[C@]2(CCCN3C(=O)OCCCOc4cccc(c4)[C@H]4CC[C@H](CC4)OC[C@@H]32)N1 (single isomer, unassigned) [Example 54b] |
| < 100 | O=C1N[C@]2(CCCN3C(=O)COc4ccccc4[C@H]4CC[C@H](CC4)OC[C@H]32)COC1F (single isomer, unassigned) [Example 56a] |
| < 100 | O=C1N[C@@]2(CCCN3C(=O)COc4ccccc4[C@H]4CC[C@H](CC4)OC[C@@H]32)COC1F (single isomer, unassigned) [Example 56b] |
| < 100 | O=C1CCC[C@@]2(CCCN3C(=O)COc4ccccc4[C@H]4CC[C@H](CC4)OC[C@H]32)N1 (single isomer, unassigned) [Example 58a] |
| > 10000 | O=C1CCC[C@]2(CCCN3C(=O)COc4ccccc4[C@H]4CC[C@H](CC4)OC[C@@H]32)N1 (single isomer, unassigned) [Example 58b] |
| < 100 | O=C1COc2ccccc2[C@H]2CC[C@H](CC2)OC[C@@H]2N1CCC[C@@]21CCCS(=O)(=O)N1 (single isomer, unassigned) [Example 59a] |
| 1000 to 10000 | O=C1COc2ccccc2[C@H]2CC[C@H](CC2)OC[C@H]2N1CCC[C@]21CCCS(=O)(=O)N1 (single isomer, unassigned) [Example 59b] |
| < 100 | O=C1N[C@]2(CCCN3C(=O)COc4ccccc4[C@H]4CC[C@H](CC4)OC[C@H]32)CO1 (single isomer, unassigned) [Example 67a] |
| > 10000 | O=C1N[C@@]2(CCCN3C(=O)COc4ccccc4[C@H]4CC[C@H](CC4)OC[C@@H]32)CO1 (single isomer, unassigned) [Example 67b] |
| 100 to 1000 | O=C1CS[C@@]2(CCCN3C(=O)COc4ccccc4[C@H]4CC[C@H](CC4)OC[C@H]32)N1 (single isomer, unassigned) [Example 68a] |
| > 10000 | O=C1CS[C@]2(CCCN3C(=O)COc4ccccc4[C@H]4CC[C@H](CC4)OC[C@H]32)N1 (single isomer, unassigned) [Example 68b] |
| 1000 to 10000 | O=C1COC[C@]2(CCCN3C(=O)C4(CC4)COc4cccc(F)c4[C@H]4CC[C@H](CC4)OC[C@@H]32)N1 (single isomer, unassigned) [Example 72a, (1′s,16′R,17′S,20′s)-3′-fluorodispiro [cyclopropane-1,10′-[8,19]dioxa-[12]azatetracyclo [18.2.2.0^2,^7.0^12,^17]tetracosane-16′,3″- morpholine]-2′,4′,6′-triene-5″,11′-dione] |
| < 100 | O=C1COC[C@@]2(CCCN3C(=O)C4(CC4)COc4cccc(F)c4[C@H]4CC[C@H](CC4)OC[C@H]32)N1 (single isomer, unassigned) [Example 72b, (1′s,16′S,17′R,20′s)-3′-fluorodispiro[cyclopropane-1,10′-[8,19]dioxa-[12]azatetracyclo [18.2.2.0^2,^7.0^12,^17]tetracosane-16′,3″- morpholine]-2′,4′,6′-triene-5″,11′-dione] |

| EC50 [nM] | Structure (SMILES) |
| --- | --- |
| 1000 to 10000 | O=C1COC[C@]2(CCN3C(=O)C4(CC4)COc4cccc(F)c4[C@H]4CC[C@H](CC4)OC[C@@H]32)N1 (single isomer, unassigned) [Example 73a, (1′s,15′R,16′S,19′s)-3′-fluorodispiro [cyclopropane-1,10′-[8,18]dioxa-[12]azatetracyclo[17. 2.2.0^2,^7.0^12,^16]tricosane-15′,3″- morpholine]-2′,4′,6′-triene-5″,11′-dione] |
| > 10000 | O=C1COC[C@@]2(CCN3C(=O)C4(CC4)COc4cccc(F)c4[C@H]4CC[C@H](CC4)OC[C@H]32)N1 (single isomer, unassigned) [Example 73b, (1′s,15′S,16′R,19′s)-3′-fluorodispiro [cyclopropane-1,10′-[8,18]dioxa-[12]azatetracyclo [17.2.2.0^2,^7.0^12,^16]tricosane-15′,3″- morpholine]-2′,4′,6′-triene-5″,11′-dione] |
| < 100 | CC1CC2(COCC(=O)N2)C2COC3CCC(CC3)c3ccncc3OCCC(=O)N12 (single isomer, unassigned) [Example 74] |
| > 10000 | CC1CC2(COCC(=O)N2)C2COC3CCC(CC3)c3ccncc3OCCC(=O)N12 (single isomer, unassigned) [Example 75] |
| > 10000 | O=C1COC[C@]2(CCCN3C(=O)CCCCOc4cccc(n4)[C@H]4CC[C@H](CC4)OC[C@@H]32)N1 (single isomer, unassigned) [Example 76a] |
| < 100 | O=C1COC[C@@]2(CCCN3C(=O)CCCCOc4cccc(n4)[C@H]4CC[C@H](CC4)OC[C@H]32)N1 (single isomer, unassigned) [Example 76b] |
| 100 to 1000 | CC1COc2ccccc2[C@H]2CC[C@H](CC2)OCC2N(CCC23COCC(=O)N3)C1=O (stereo partly drawn) [Example 5, (1′s,3S,16′R,19′s)-10′-methyl-8′,18′-dioxa-12′-azaspiro[morpholine-3,15-′tetracyclo[17.2.2.0^2,70.0^12,16]tricosane]-2′(7′), 3′,5′-triene-5, 11′-dione] |
| < 100 | C[C@@H]1C[C@@]2(COCC(=O)N2)[C@@H]2CO[C@H]3CC[C@H](CC3)c3ccccc3OCC(=O)N12 [Example 12a, (1′s,3S,12′R,15′R,18′s)-12′-methyl-8′,17′-dioxa-11′-azaspiro[morpholine-3,14′-tetracyclo[16.2.2.0^2,70.0^11,15]docosane]-2′(7′),3′,5′-triene-5,10′-dione] |
| 100 to 1000 | C[C@@H]1C[C@]2(COCC(=O)N2)[C@H]2CO[C@H]3CC[C@H](CC3)c3ccccc3OCC(=O)N12 [Example 12b, (1′s,3R,12′R,15′S, 18′s)-12′-methyl-8′,17′-dioxa-11′-azaspiro[morpholine-3,14′-tetracyclo[16.2.2.0^2,70.0^11,15]docosane]-2′(7′),3′,5′-triene-5,10′-dione] |
| > 10000 | C[C@@H]1C[C@]2(COCC(=O)N2)[C@H]2CO[C@H]3CC[C@H](CC3)c3ccc(F)cc3OCC(=O)N12 [Example 19b, (1′s,3R,12′R,15′S, 18′s)-5′-fluoro-12′-methyl-8′,17′-dioxa-11′-azaspiro[morpholine-3,14′-tetracyclo [16.2.2.0^2,^7.0^11,^15]docosane]-2′,4′,6′-triene-5,10′-dione] |
| < 100 | C[C@@H]1C[C@@]2(COCC(=O)N2)[C@@H]2CO[C@H]3CC[C@H](CC3)c3cc(F)cc(F)c3OCCC(=O)N12 [Example 25a, (1′s,3S,13′R,16′R, 19′s)-4′,6′-difluoro-13′-methyl-8′,18′-dioxa-12′-azaspiro[morpholine-3,15′-tetracyclo[17.2.2. 0^2,^7.0^12,^16]tricosane]-2′,4′,6′-triene-5,11′-dione] |
| < 100 | C[C@@H]1C[C@]2(COCC(=O)N2)[C@H]2CO[C@H]3CC[C@H](CC3)c3cc(F)cc(F)c3OCCC(=O)N12 [Example 25b, (1′s,3R,13′R,16′S, 19′s)-4′,6′-difluoro-13′-methyl-8′,18′-dioxa-12′-azaspiro[morpholine-3,15′-tetracyclo[17.2.2. 0^2,^7.0^12,^16]tricosane]-2′,4′,6′-triene-5,11′-dione] |
| < 100 | O=C1COCC2(CCCN3C(=O)COc4ccccc4[C@H]4CC[C@H](CC4)OCC32)N1 (stereo partly drawn) [Example 32, Rel-(1′s,3S,16′R,19′s)-8′,18′-dioxa-11′-azaspiro[morpholine-3, 15′-tetracyclo-[17.2.2.0^2,70.0^11,16]tricosane]-2′(7′),3′,5′-triene-5,10′-dione] |
| < 100 | O=C1COCC2(CCCN3C(=O)CCOc4ccccc4[C@H]4CC[C@H](CC4)OCC32)N1 (stereo partly drawn) [Example 33, Rel-(1′s,3S,17′R,20's)-8′,19′-dioxa-12′-azaspiro[morpholine-3,16′-tetracyclo-[18.2.2.0^2,70.0^12,17]tetracosane]-2′(7′),3′,5′-triene-5,11′-dione] |
| < 100 | O=C1COCC2(CCCN3C(=O)CCCOc4ccccc4[C@H]4CC[C@H](CC4)OCC32)N1 (stereo partly drawn) [Example 34, Rel-(1′s,3S,18′R,21′s)-8′,20′-dioxa-13′-azaspiro[morpholine-3,17′-tetracyclo[19.2.2.0^2,70.0^13,18]pentacosane]-2′(7′),3′,5′-triene-5,12′-dione] |
| < 100 | CC1Oc2ccccc2[C@H]2CC[C@H](CC2)OCC2N(CCCC23COCC(=O)N3)C1=O (stereo partly drawn) [Example 35, Rel-(1′s,3S,16′R,19′s)-9′-methyl-8′,18′-dioxa-11′-azaspiro[morpholine-3, 15′-tetracyclo[17.2.2.0^2,70.0^11,16]tricosane]-2′(7′),3′,5′-triene-5,10′-dione] |
